Data set [1] addresses central-type benzodiazepine receptor (CBR). As to the kind of experiment: Radioligand binding assay, displacement of [3H]flunitrazepam from rat cerebral cortex membranes. On the procedure:
(§1) The IC50 values were determined from the displacement curves using the reference compound [^3H]-PK 11195, for TSPO, or [^3H]flunitrazepam for CBR. The data obtained, expressed as IC50 values, as well as the ratios between CBR and TSPO affinity, respectively (Selectivity Index, SI), as a measure of the in vitro selectivity, are shown in Table 2 and were compared with unlabeled TSPO selective ligand PK 11195, and with CBR selective ligand flunitrazepam. […] Moreover, the SI of TSPO-ligand MTX conjugate 3 is similar to the reference compound PK 11195. […] Thus, the binding quantification of TSPO ligands is confounded by the expression of different forms of TSPO and to assess the potentially therapeutic use of TSPO-ligands would be appropriate to genetically test the patients.
(§2) Binding assays ([^3H]Flunitrazepam and [^3H]PK 11195 bindings) were assessed to membrane preparations from rat cerebral cortex as described previously. The IC50 values (GraphPad Prism software, (La Jolla, CA, USA)) were determined from the displacement curves using the reference compound [^3H]-PK11195, for TSPO or [^3H]flunitrazepam, for CBR, respectively. The selectivity index (SI) was calculated from: IC50(CBR)/IC50(TSPO).
In general terms: Loss of bound radioactivity is the signal in a displacement assay; it reports binding, not function.

Data set [2] has as its system RG2 rat glioma cells. As to the kind of experiment: Cytotoxicity by MTT assay, RG2 cells. In kind it is cell-based. To be noted: Glioma cell, 24 h exposure. From the text: (§3) These cellular lines were selected for their high expression level of TSPO and, therefore, have been used extensively for in vitro experiments on the brain tumor models and for cytotoxicity studies relating to anticancer drugs, as well as TSPO-ligands and its nanodevices. The tested compounds show high cytotoxicity on all cell lines, especially for C6 rat glioma cells. In particular, the TSPO-ligand MTX α-conjugates 3 appears to be the most cytotoxic displaying a lower IC50 value compared to MTX on C6 cells.
(§4) Rat RG2 and C6 glioma cells were grown in DMEM (Dulbecco’s modified Eagle’s medium, Sigma Aldrich, Milano, Italy) nutrient supplemented with 10% heat inactivated FBS (Fetal Bovine Serum, Sigma Aldrich), 2 mM, L-glutamine, penicillin (100 U/mL), and streptomycin (100 µg/mL) at 37 °C in a humidified 5% CO2 atmosphere. Cells were fed every day and seeded in 96-well plates at a density of ~5000 cells/well for assays. MTX and TSPO ligand-MTX conjugates were dissolved in DMSO at initial concentrations of 1000 µg/mL and then diluted with medium. Cells were exposed to different concentrations of compounds (0.1–1000 nM) for 24 h.
(§5) Cell viability was evaluated by MTT (3-(4,5-dimethylthiazol-2-yl)-2,5-diphenyltetrazolium bromide) assay as previously described. In brief, 10 µL of MTT (5.0 mg/mL) was added to the cells and cultured at 37 °C, in a humidified 5% CO2 atmosphere for 2 h. After this period, medium was removed and the cells were replaced with 150 µL of a DMSO/ethanol (1:1) solution per well. The absorbance of the individual well was measured by microplate reader (Wallac Victor3, 1420 Multilabel Counter, Perkin-Elmer (Waltham, MA, USA). All experiments were repeated three times and each compound’s concentration was tested in triplicate.
For orientation: Formazan colour is commonly taken as a measure of viable cells.

Data set [3] deals with C6 rat glioma cells. The data set can be described thus: Cytotoxicity by MTT assay, C6 cells. The class given is cell-based. To be noted: Glioma cell, 24 h exposure.
Source text: as §3, §4, §5

The test system of data set [4] is SF188 human glioma cells. The data set can be described thus: Cytotoxicity by MTT assay, SF188 cells. To be noted: SF-188. In kind it is cell-based.
A short description of data set [5]: Stability in diluted rat serum solution (50% v/v) at 37 °C. To be noted: diluted rat serum (50% v/v), pH 7.4, 50% v/v rat serum, pH 7.4, 37 °C, read-out: t1/2 (h) Diluted Rat Serum. The class given is in vitro ADME. As to the method:
(§6) The chemical stability of the TSPO-ligand MTX conjugates 3 and 4 was evaluated in 50 mM phosphate buffer solution at pH 7.4 and 37 °C; the physiological stability was also determined using a dilute rat serum solution (50% v/v) at 37 °C. The aim of this work is the synthesis of TSPO ligand-MTX conjugates in order to improve the plasma stability and having less side effects than MTX. In addition TSPO ligand-MTX conjugates could enhance the transport across BBB and due a tumor targeting effect for the TSPO moiety, might selectively deliver the antineoplastic agent to brain tumors and prolong its efficacy. The TSPO-ligand MTX conjugates 3 and 4 are stable in buffer solution at pH 7.4 and enough stable in physiological medium with their half-lives exceeding 3 h. […] In addition, CB86 (m/z = 407, [M + Na]^+) (Figure 1), most likely originating from the degradation of ligand 2, as previously shown, could be detected. Other products arising from the further degradation of the anticancer drug were found.
The TSPO ligand-MTX conjugates 3 and 4 stabilities in physiological medium were studied at 37 °C in 0.05 M phosphate buffer and 0.14 M NaCl at pH 7.4, containing 50% v/v of rat serum. […] Samples were centrifuged at 3500 rpm for 10 min, and the supernatant was removed, filtered through cellulose acetate membranes (0.22 µm, Advantec MFS) and then 20 µL of filtrates were immediately analyzed by HPLC. […]

Data set [6] deals with SF126 human glioma cells. As to the kind of experiment: Cytotoxicity by MTT assay, SF126 cells. In kind it is cell-based. To be noted: SF-126.
The nature of data set [7]: Transport across MDCKII-MDR1 cell monolayer. To be noted: dog, MDCK-MDR1, pH 7.4.
Protocol: (§7) The apparent permeability coefficient (Papp) of each compound was calculated on the basis of the amounts permeated through MDCKII-MDR1 monolayer by the equation: Papp=VA dC/A[D]in dt where VA (dC/dt) is the linear appearance rate of mass in the receiver solution; A is the filter/cell surface area and [D]in is the initial tested compound concentration in the apical (AP) chamber. The Papp values were evaluated in apical to basolateral direction. […] On an experimental day, the integrity of the cell monolayer was assessed by measuring the transendothelial electrical resistance (TEER) value.
(§8) The bi-directional transport study was conducted as previously reported [15]. A Transwell® 12 plate consisting of differentiated MDCKII-MDR1cells plated on polyester microporous filters (12 mm diameter, 0.4 µm pore size, 0.5 mL apical volume, 1.5 mL basolateral volume) at a density of 100,000 cells/cm^2, was used for the permeability assay. The integrity of the cell monolayer was assessed by measuring the TEER value in each well, using an epithelial volt-ohm meter (EVOM). Cell monolayers with TEER 120–140 Ohm/cm^2 were used. […] Fresh assay medium was placed in the receiver compartment. […] After incubation time of 2 h, samples were removed from the apical side of the monolayer and then analyzed. […] All experiments were repeated three times and each compound was tested in triplicate.
The nature of data set [8]: Chemical stability in 50 mM phosphate buffer pH 7.4 at 37 °C. The class given is physicochemical. To be noted: 0.05 M phosphate buffer pH 7.4, 37 °C; read-out: t1/2 (h) PBS (converted). On the procedure: as §6
TSPO ligand-MTX conjugates 3 and 4 chemical stabilities were studied at pH 7.4 in 0.05 M phosphate buffer at 37 °C. […] At appropriate time intervals, aliquots of 100 µL of each sample were removed, filtered through cellulose acetate membranes (0.22 µm, Advantec MFS, Pleasanton, CA, USA), and then 20 µL of filtrates were immediately analyzed by HPLC. […]

The target in data set [9] is T1, TSPO (Rattus norvegicus, UniProt P16257).
T1 construct: from tissue; host or cells: rat cerebral cortex membranes
As to the kind of experiment: Radioligand binding assay, displacement of [3H]-PK 11195 from rat cerebral cortex membranes. To be noted: for SI (selectivity index): IC50(CBR)/IC50(TSPO); for IC50: rat cerebral cortex membranes, [3H]-PK 11195. As to the method: as §1, §2

The target of data set [10] is central-type benzodiazepine receptor (CBR). To be noted: rat cerebral cortex membranes, [3H]flunitrazepam; cited from earlier work.
Data set [11] can be described thus: in vitro. To be noted: dog, MDCK-MDR1, pH 7.4.
Protocol: as §7, §8
Data set [12] addresses T1, TSPO. To be noted: cited from earlier work.

The values that follow come from publication PMC4926499, “TSPO Ligand-Methotrexate Prodrug Conjugates: Design, Synthesis, and Biological Evaluation” (International Journal of Molecular Sciences, 2016).

Each structure is given as a SMILES string. Like-named read-outs stand apart in the source and are kept apart here.

In general, IC50 refers to the midpoint of a concentration-inhibition curve. A word on the Papp: it is the rate of passage across a membrane or cell layer, normalised by area and donor concentration. Low values mean slow passage, high ones fast passage. As usually defined, the melting point is the temperature, or range, at which the solid turns liquid. Regarding `CCCN(CCC)C(=O)Cc1c(-c2ccc(Cl)cc2)nc2c(NC(=O)CNC(=O)C(CCC(=O)O)NC(=O)c3ccc(N(C)Cc4cnc5nc(N)nc(N)c5n4)cc3)cccn12` (centres unmarked) [Compound 3, 5-(2-(2-(4-Chlorophenyl)-3-(2-(dipropylamino)-2-oxoethyl)imidazo[1,2-a]pyridin-8-ylamino)-2-oxoethylamino)-4-(4-(((2,4-diaminopteridin-6-yl)methyl)(methyl)amino)benzamido)-5-oxopentanoic acid], the melting point was 210 °C (dec.). Moreover, the IC50 in data set [1] was > 100000 nM. Besides, the IC50 in [2] came out at 4.2 ± 3.2 nM. The compound further registered an IC50 in [3] of 1.2 ± 0.7 nM. Besides, the IC50 in [4] was determined as 9.2 ± 3.4 nM. The half-life in [5] is > 3 h. Also, the IC50 in data set [6] came out at 14.2 ± 4.2 nM. In addition, the Papp at 2 h, 75 µM in data set [7] worked out at 3.65 ×10⁻⁶ cm/s. In addition, the half-life in data set [8] was 144 ± 25 h. In data set [9], the “SI (selectivity index)” value is given as >1.4 × 10^4 and the IC50 came to 7.2 ± 2.1 nM.

Take `CN1C(=O)CN=C(c2ccccc2F)c2cc([N+](=O)[O-])ccc21` [Flunitrazepam]: the IC50 in [10] was 5.1 ± 0.5 nM.

`CCCN(CCC)C(=O)Cc1c(-c2ccc(Cl)cc2)nc2c(NC(=O)CNC(=O)CCC(NC(=O)c3ccc(N(C)Cc4cnc5nc(N)nc(N)c5n4)cc3)C(=O)O)cccn12` (centres unmarked) [Compound 4, 5-(2-(2-(4-Chlorophenyl)-3-(2-(dipropylamino)-2-oxoethyl)imidazo[1,2-a]pyridin-8-ylamino)-2-oxoethylamino)-2-(4-(((2,4-diaminopteridin-6-yl)methyl)(methyl)amino)benzamido)-5-oxopentanoic acid]: the melting point is 190 °C (dec.). In addition, the IC50 in [1] was > 100000 nM. The IC50 in data set [2] was found to be 15.2 ± 2.9 nM. The compound further yielded an IC50 in [3] of 2.2 ± 0.6 nM. This compound yielded an IC50 in data set [4] of 18.2 ± 2 nM. The half-life in [5] is > 3 h. In addition, in data set [6], the IC50 amounted to 25 ± 2.6 nM. Further, in data set [7], the Papp at 2 h, 75 µM is 3.32 ×10⁻⁶ cm/s. Besides, in data set [8], the half-life is 74 ± 12 h. Further, in data set [9], the “SI (selectivity index)” value was >2.5 × 10^3 and the IC50 was 40.3 ± 3.8 nM.

As for `CCC(C)N(C)C(=O)c1cc2ccccc2c(-c2ccccc2Cl)n1` (centres unmarked) [PK11195], the IC50 in data set [10] is > 100000 nM.

On to `CN(Cc1cnc2nc(N)nc(N)c2n1)c1ccc(C(=O)N[C@@H](CCC(=O)O)C(=O)O)cc1` [MTX, 2,4-diamino-N^10-methylpteroylglutamic acid, reference compound], for which the IC50 came to 3.8 ± 1.5 nM in data set [2], 2.6 ± 0.8 nM in data set [3], 1.2 ± 0.2 nM in data set [4] and 1.2 ± 0.3 nM in [6]. For the same compound, in data set [11], the Papp at 2 h, 75 µM is 0.091 ×10⁻⁶ cm/s.

As to `CCCN(CCC)C(=O)Cc1c(-c2ccc(Cl)cc2)nc2c(NC(=O)CN)cccn12` [Compound 2, N,N-dipropyl-[2-(8-(2-aminoacetamido)-2-(4-chlorophenyl)imidazo[1,2-a]pyridin-3-yl)]acetamide], in [12] (IC50(CBR)/IC50(TSPO)), the “SI (selectivity index)” value is on record as >4.1 × 10^3. For the same compound, the IC50 in [12] (read-out: IC50 (nM) TSPO Cortex, rat cerebral cortex membranes, [3H]-PK 11195) was 24 ± 4.2 nM; in data set [10], > 100000 nM.
